Measurements: article PMC7693203 (Epilepsia, 2020)
Like-named read-outs stand apart in the source and are kept apart here. Marks after values point to notes of the source that are not given here.

Legend:
[1] = trial 17074; after CBD alone, during RIF treatment, or after CBD and RIF; of 16
[2] = healthy volunteers, cited from earlier work; for increase in AUCtau with concomitant CBD / increase in C max with concomitant CBD: steady-state ASD
[3] = patients with epilepsy on stable CLB; result in words; cited from earlier work
[4] = target: T1, CYP3A4 (Homo sapiens, UniProt P08684)
T1 sequence (P08684 whole entry): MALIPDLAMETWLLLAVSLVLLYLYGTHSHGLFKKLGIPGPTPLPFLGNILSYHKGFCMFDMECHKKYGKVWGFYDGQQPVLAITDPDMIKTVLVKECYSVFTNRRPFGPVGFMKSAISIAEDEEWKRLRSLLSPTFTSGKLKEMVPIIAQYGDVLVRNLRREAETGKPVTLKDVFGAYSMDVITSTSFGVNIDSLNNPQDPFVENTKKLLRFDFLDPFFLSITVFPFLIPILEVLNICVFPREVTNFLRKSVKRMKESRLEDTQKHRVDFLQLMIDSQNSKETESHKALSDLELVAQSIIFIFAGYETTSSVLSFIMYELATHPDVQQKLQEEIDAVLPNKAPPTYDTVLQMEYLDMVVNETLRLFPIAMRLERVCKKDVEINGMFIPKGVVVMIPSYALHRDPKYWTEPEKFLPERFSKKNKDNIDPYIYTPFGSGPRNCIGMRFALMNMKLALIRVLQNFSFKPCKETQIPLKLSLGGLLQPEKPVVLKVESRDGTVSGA

[5] = target: T1, CYP3A4; test: clinical; conditions: in vivo
[6] = target: T1, CYP3A4; conditions: result in words; cited from earlier work
[7] = cited from earlier work
[8] = cited from earlier work; for decrease in AUCtau with concomitant CBD / decrease in C max with concomitant CBD: patients with epilepsy on stable VPA
[9] = target: CYP2C19 (Homo sapiens, UniProt P33261); conditions: result in words; cited from earlier work
CYP2C19, sequence (P33261 whole entry): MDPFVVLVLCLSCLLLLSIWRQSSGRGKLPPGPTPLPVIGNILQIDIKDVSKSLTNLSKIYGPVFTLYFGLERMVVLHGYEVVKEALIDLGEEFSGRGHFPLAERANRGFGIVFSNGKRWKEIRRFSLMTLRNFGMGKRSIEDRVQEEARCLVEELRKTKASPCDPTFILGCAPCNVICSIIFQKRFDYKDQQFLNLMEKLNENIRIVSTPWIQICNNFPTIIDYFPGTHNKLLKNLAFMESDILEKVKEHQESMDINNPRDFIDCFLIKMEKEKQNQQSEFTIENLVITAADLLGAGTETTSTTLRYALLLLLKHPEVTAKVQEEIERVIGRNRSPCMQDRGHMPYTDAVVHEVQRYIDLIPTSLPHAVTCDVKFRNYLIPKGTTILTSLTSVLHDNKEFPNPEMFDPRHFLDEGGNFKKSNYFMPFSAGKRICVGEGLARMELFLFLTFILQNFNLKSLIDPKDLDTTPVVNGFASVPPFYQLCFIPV

With CO[C@H]1/C=C/O[C@@]2(C)Oc3c(C)c(O)c4c(O)c(c(/C=N/N5CCN(C)CC5)c(O)c4c3C2=O)NC(=O)/C(C)=C\C=C\[C@H](C)[C@H](O)[C@@H](C)[C@@H](O)[C@@H](C)[C@H](OC(C)=O)[C@@H]1C [RIF, rifampicin] the “healthy volunteers reporting AEs” value [1] was 81%.
For CN1C(=O)CC(=O)N(c2ccccc2)c2cc(Cl)ccc21 [CLB, clobazam], the “increase in AUCtau with concomitant CBD” value [2] is listed as 21%, the “increase in C max with concomitant CBD” value [2] is listed as 20% and the “effect of concomitant CBD on exposure” value [3] is listed as “no effect”.
In the case of Cc1ncc2n1-c1ccc(Cl)cc1C(c1ccccc1F)=NC2 [MDZ, midazolam], the t max ([4]; human, in vivo) is reported as 1.00 (0.5‐3.00) h, the “t ½” value ([4]; human, in vivo) is reported as 4.53 (14.5) h and the t max ([5]; t max) is reported as 0.5 h. For the same compound, the half-life ([5]; t ½) was 4.99 h.
For CC(C)(C)C(O)/C=C/c1ccc2c(c1)OCO2 (stereo not shown) [STP, stiripentol], the “increase in AUCtau with concomitant CBD” value [2] is listed as 55%, the “increase in C max with concomitant CBD” value [2] is listed as 28% and the “inhibition of CYP3A4” value [6] is listed as “potent inhibitor”. For the same compound, the “Plasma protein binding (PPB)” value [7] was 96.1%, the “increase in AUCtau with concomitant CBD” value ([8]; patients with epilepsy) was 30% and the “increase in C max with concomitant CBD” value ([8]; patients with epilepsy) was 17%. The “inhibition of CYP2C19” value [9] was “potent inhibitor”.
In the case of OCc1ncc2n1-c1ccc(Cl)cc1C(c1ccccc1F)=NC2 [1′‐OH‐MDZ, 1′‐hydroxymidazolam], the t max ([4]; MDZ + CBD (steady-state CBD 750 mg BID), median (min‐max)) is reported as 3.00 (0.50‐5.02) ^e h, the “t ½” value ([4]; MDZ + placebo, MDZ 2.5 mg single dose, arithmetic mean (CV%)) is reported as 6.11 (39.0) h and the t max ([4]; MDZ + placebo, median (min‐max)) is reported as 0.50 (0.48‐1.55) ^d h. The “increase in AUCtau with concomitant CBD” value ([4]; steady-state CBD) was 68%, the “increase in C max with concomitant CBD” value ([4]; steady-state CBD) was 12% and the “increase in t ½ with concomitant CBD” value ([4]; steady-state CBD) was 35%. The “delay to t max, median of differences” value ([4]; with concomitant CBD, 90% CI = 1.00‐2.52) was 2.25 h.
For C=CCC(CCC)C(=O)O (stereo not shown) [4‐ene‐VPA, 2‐propyl‐4‐pentenoic acid], the “decrease in AUCtau with concomitant CBD” value [8] is listed as 30% and the “decrease in C max with concomitant CBD” value [8] is listed as 23%.
For CCCC(CCC)C(=O)O [VPA, valproate], the “effect of concomitant CBD on exposure” value ([2]; result in words) is given as “no effect”, the “PPB when VPA and CBD are combined in vitro” value ([7]; result in words) is given as “not affected” and the “decrease in AUCtau with concomitant CBD” value [8] is given as 17%. The “decrease in C max with concomitant CBD” value [8] was 13%.
